Experimental data taken from paper PMC10708623, “The Synergistic Effect of GH13 and GH57 GBEs of Petrotoga mobilis Results in α-Glucan Molecules with a Higher Branch Density” (Polymers, 2023).

Target: T1, PmGBE57 (Petrotoga mobilis, UniProt A9BH92)
T1 construct: gene Pmob_0588; full-length codon-optimized gene in pET28a(+), C-terminal His-tag, expressed in E. coli BL21(DE3), Ni-NTA purified
T1 sequence (A9BH92 1-538): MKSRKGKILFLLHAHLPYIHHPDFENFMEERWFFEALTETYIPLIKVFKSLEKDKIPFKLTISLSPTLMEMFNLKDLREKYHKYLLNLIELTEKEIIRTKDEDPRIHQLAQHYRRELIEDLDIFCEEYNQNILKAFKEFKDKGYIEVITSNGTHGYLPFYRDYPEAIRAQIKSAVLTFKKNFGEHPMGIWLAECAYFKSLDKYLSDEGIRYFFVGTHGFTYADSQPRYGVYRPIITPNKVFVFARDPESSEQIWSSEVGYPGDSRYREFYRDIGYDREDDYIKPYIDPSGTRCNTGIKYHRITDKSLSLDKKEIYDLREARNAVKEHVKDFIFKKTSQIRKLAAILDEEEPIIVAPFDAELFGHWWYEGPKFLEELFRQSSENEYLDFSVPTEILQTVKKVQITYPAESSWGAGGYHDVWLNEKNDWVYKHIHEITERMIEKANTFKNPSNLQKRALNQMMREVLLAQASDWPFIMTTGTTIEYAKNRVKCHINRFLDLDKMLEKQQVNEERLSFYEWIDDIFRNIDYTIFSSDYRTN
Assay: HPAEC-PAD chain length analysis after […] h
Format: biochemical
Conditions: 1 U^B/g substrate, hydrolysis only, reagent also contains DP6

## OC[C@H]1O[C@H](O[C@H]2[C@H](O)[C@@H](O)[C@@H](O[C@H]3[C@H](O)[C@@H](O)[C@@H](O[C@H]4[C@H](O)[C@@H](O)[C@@H](O[C@H]5[C@H](O)[C@@H](O)[C@@H](O[C@H]6[C@H](O)[C@@H](O)[C@@H](O[C@H]7[C@H](O)[C@@H](O)C(O)O[C@@H]7CO)O[C@@H]6CO)O[C@@H]5CO)O[C@@H]4CO)O[C@@H]3CO)O[C@@H]2CO)[C@H](O)[C@@H](O)[C@@H]1O (stereo partly shown) [MD7, maltoheptaose]
  HPAEC-PAD chain length analysis after 24 h: PmGBE57 showed the ability to utilize the short DP7 chains
